From paper PMC8541628, “Development of Novel Quinoline-Based Sulfonamides as Selective Cancer-Associated Carbonic Anhydrase Isoform IX Inhibitors” (International Journal of Molecular Sciences, 2021)
Like-named read-outs stand apart in the source and are kept apart here.

Key:
active caspase-3 [1] = test: active caspase-3 level (ELISA) in MCF-7 cells; type: cell-based, human; details: 24 h incubation
Protocol: (§1) The levels of two members of Bcl-2 family proteins, the anti-apoptotic Bcl-2 protein, and the counteracting pro-apoptotic Bax protein, as well as the level of active caspase-3 (a key executioner protease) in MDA-MB-231 and MCF-7 cells have been assessed after incubation with QBS 11c and 13b for 24 h.
(§2) All adopted procedures for the conducted in vitro biological assays were performed as described earlier; CA (stopped-flow), cytotoxicity (MTT [37, 38]), and assessment of apoptotic markers assays, as well as induction of hypoxia with cobalt chloride, and were mentioned in the Supporting Materials. […]
(§3) monolay er. Cell monolay ers were treated in quadrates with vehicle (DMSO, 0.1% v/v), test samples or Adriamycin as positive control for an exposure time of 72 h. At the end of exposure, MTT solution in PBS (5 mg/ml) was then added to all well including no cell blank and left to incubate for 90 min. The formation of formazan crystals were visually confirmed using phase contract microscopy. DMSO (100 µl/well) was added to dissolve the formazan crystals with shaking for 10 min after which the absorbance was read at 590 nm against no cell blanks on a FLuo Star Optima microplate reader (BMG technologies, Germany). Cell proliferation was calculated comparing the OD values of the DMSO control wells and those of the samples represented as % proliferation to the control. Dose-response experiment was performed on samples producing > or =50% loss of cell proliferation using five serial 2-fold dilutions (50, 25, 12.5, 6.25 and 3.125 µM) of the sample. IC50 values (concentration of sample causing 50% loss of cell proliferation of the vehicle control) were calculated using non-linear regression curve fitting of the dose response plots on GraphPad Prism V.6.0 software.
(§4) 3. Assessment of Apo ptotic Markers Levels
The levels of the pro-apoptotic markers (Bax and active caspase-3) as well as the anti-apoptotic marker Bcl-2 were determined using ELISA kits; Human Bax ELISA Kit (EIA-4487) DRG® Instruments, Bcl-2 ELISA Kit (99–0042), Zymed® Laboratories, Invitrogen Immunodetection, and Human Caspase-3 (active) ELISA Kit (KHO1091) Invitrogen®, per the manufacturer’s instructions. Breast cancer MDA-MB-231 and MCF-7 cells were cultured as a monolayer in T-25 flasks and were seeded to attain 30% confluency prior to treatment. Cells were then treated separately with MBFS 11b at its IC50 concentration for 24 h. […]
captured protein, forming a “sandwich” of specific antibodies around the desired protein in the cell lysate. […] The HRP domain reacted with the added TMB substrate to form a colored product that measured at 450 nm by a plate reader ChroMate-4300 after the reaction was terminated via the addition of stop solution. […]

MDA-MB-231 = test: 72 h MTT anti-proliferative assay under hypoxic conditions, MDA-MB-231; type: cell-based; details: Homo sapiens, mean ± S.D. of three experiments
Excerpt: 1. Carbonic anhydrase inhibition assay
The enzymes are recombinant proteins prepared in our lab.
parameters and inhibition constants.
2. Anti-proliferative action toward human breast cell lines

active caspase-3 [2] = test: active caspase-3 level (ELISA) in MDA-MB-231 cells; type: cell-based, human; details: 24 h incubation
Protocol: as §1, §2, §4
(§5) The levels of the pro-apoptotic markers (Bax and active caspase-3) as well as the anti-apoptotic marker Bcl-2 were determined using ELISA kits; Human Bax ELISA Kit (EIA-4487) DRG® Instruments, Bcl-2 ELISA Kit (99–0042), Zymed® Laboratories, Invitrogen Immunodetection, and Human Caspase-3 (active) ELISA Kit (KHO1091) Invitrogen®, per the manufacturer’s instructions. Breast cancer MDA-MB-231 and MCF-7 cells were cultured as a monolayer in T-25 flasks and were seeded to attain 30% confluency prior to treatment. Cells were then treated separately with MBFS 11b at its IC50 concentration for 24 h. At the end of treatment, cells were collected via trypsinization and centrifuged at 10,000 rpm. The pellet was then rinsed with PBS and lysed in RIPA lysis buffer at 4 °C for 45 min, then centrifuged at 14,000 rpm for 20 min to remove the cellular debris. Lysates were then collected and stored at −80 °C for later protein determination using Pierce BCA Protein Assay Kit according to manufacturer’s recommendations.
(§6) The cell lysate was diluted 10 times, and 100 μL ([…]) was added to the wells of […] separate microtiter plates for the three ELISA kits th at were pre-coated with primary antibodies specific to Bax, Bcl-2, and caspase-3 proteins, respectively. A secondary biotin-linked antibody specific to the protein captured by the primary antibody was further added to bind the […]
(§7) captured protein, forming a “sandwich” of specific antibodies around the desired protein in the cell lysate. The streptavidin-HRP complex was then used to bind the biotin-linked secondary antibody through its streptavidin portion. The HRP domain reacted with the added TMB substrate to form a colored product that measured at 450 nm by a plate reader ChroMate-4300 after the reaction was terminated via the addition of stop solution. […]
(§8) The ligand 3D structures were prepared by Maestro and their ionization states was checked with Epik at pH 7.4±0.5 then they were subjected to energy minimization using OPLS3 force field in Macromodel with a maximum number of 2500 conjugate gradient iteration and a convergence of 0.05 kcal mol−1 A−1. […]

Bcl-2 [3] = test: Bcl-2 expression level (ELISA) in MCF-7 cells; type: cell-based, human; details: for Bcl-2 / Bcl-2, folds of control: 24 h incubation; for suppression of the expression level of Bcl-2 protein: compared to the untreated control
Protocol: as §1, §2, §3, §4, §5, §6, §7
The ligand 3D structures were prepared by Maestro and their ionization states was checked with Epik at pH 7.4±0.5 then they were subjected to energy minimization using OPLS3 force field in Macromodel with a maximum number of 2500 conjugate gradient iteration and a convergence of 0.05 kcal mol−1 A−1. Glide with default […]

hCA II = hCA II (Homo sapiens, UniProt P00918); test: stopped flow carbon dioxide hydrase assay, hCA II
hCA IX = hCA IX (Homo sapiens, UniProt Q16790); test: stopped flow carbon dioxide hydrase assay, hCA IX; details: for Selectivity ratio I/IX: hCA IX over hCA I; for Selectivity ratio II/IX: hCA IX over hCA II
Bax = Bax expression level (ELISA) in MDA-MB-231 cells; type: cell-based, human; details: 24 h incubation
Protocol: as §1, §2, §4, §5, §6, §7, §8

Bcl-2 [4] = test: Bcl-2 expression level (ELISA) in MDA-MB-231 cells; type: cell-based, human; details: for Bcl-2 / Bcl-2, folds of control: 24 h incubation; for decrease in the expression level of Bcl-2 protein: in comparison to the untreated control
Protocol: as §1, §2, §4, §5, §6, §7
The ligand 3D structures were prepared by Maestro and their ionization states was checked with Epik at pH 7.4±0.5 then they were subjected to energy minimization using OPLS3 force field in Macromodel with a maximum number of 2500 conjugate gradient iteration and a convergence of 0.05 kcal mol−1 A−1. Glide with default parameters was u sed to generate th e docking g rid setting the center of the co-crystallized lig and s as grid center. Docking was performed using the standard precision mode (SP) implemented in Glide and the top 5 poses for each ligand were returned. Prime MMGBSA was used for the refinement of the best pose for each ligand, using VSGB solvation model setting the receptor flexible within 3 A around the ligand.

COc1ccc2nccc(Nc3ccc(S(N)(=O)=O)cc3)c2c1 [13b, 4-((6-methoxyquinolin-4-yl)amino)benzenesulfonamide]
Active Caspase-3 (active caspase-3 [1]): 14.82 ± 0.43 Pg/mg of Total Protein
Active Caspase-3, folds of control (active caspase-3 [1]): 3.02 folds of control
IC50 (MDA-MB-231): 2240 ± 100 nM
Active Caspase-3 (active caspase-3 [2]): 9.32 ± 0.73 Pg/mg of Total Protein
Active Caspase-3, folds of control (active caspase-3 [2]): 3.62 folds of control
Bcl-2 (Bcl-2 [3]): 5.72 ± 0.13 Pg/mg of Total Protein
Bcl-2, folds of control (Bcl-2 [3]): 0.62 folds of control
suppression of the expression level of Bcl-2 protein (Bcl-2 [3]): 38%
Ki (hCA II): 58.4 nM
Ki (hCA IX): 5.5 nM
Selectivity ratio I/IX (hCA IX): 16.7
Selectivity ratio II/IX (hCA IX): 10.6
BAX (Bax): 373.5 ± 10.4 Pg/mg of Total Protein
BAX, folds of control (Bax): 6.3 folds of control
Bcl-2 (Bcl-2 [4]): 5.304 ± 0.13 Pg/mg of Total Protein
Bcl-2, folds of control (Bcl-2 [4]): 0.37 folds of control
decrease in the expression level of Bcl-2 protein (Bcl-2 [4]): 63%

NS(=O)(=O)c1cccc(Nc2ccnc3ccc(Cl)cc23)c1 [11c, 3-((6-chloroquinolin-4-yl)amino)benzenesulfonamide]
Active Caspase-3 (active caspase-3 [1]): 17.83 ± 0.62 Pg/mg of Total Protein
Active Caspase-3, folds of control (active caspase-3 [1]): 3.64 folds of control
IC50 (MDA-MB-231): 1030 ± 50 nM
Active Caspase-3 (active caspase-3 [2]): 12.69 ± 1.14 Pg/mg of Total Protein
Active Caspase-3, folds of control (active caspase-3 [2]): 4.93 folds of control
Bcl-2 (Bcl-2 [3]): 7.29 ± 0.15 Pg/mg of Total Protein
Bcl-2, folds of control (Bcl-2 [3]): 0.79 folds of control
suppression of the expression level of Bcl-2 protein (Bcl-2 [3]): 21%
Ki (hCA II): 155 nM
Selectivity ratio I/IX (hCA IX): 52.7
Selectivity ratio II/IX (hCA IX): 18.4
Ki (hCA IX; read-out: KI CA IX, stopped flow technique, mean from 3 different assays): 8.4 nM
BAX (Bax): 420.9 ± 8.24 Pg/mg of Total Protein
BAX, folds of control (Bax): 7.1 folds of control
Bcl-2 (Bcl-2 [4]): 6.45 ± 0.17 Pg/mg of Total Protein
Bcl-2, folds of control (Bcl-2 [4]): 0.45 folds of control
decrease in the expression level of Bcl-2 protein (Bcl-2 [4]): 55%
